In series [1] the test system is ovarian cancer (SKOV-3) cells xenograft. The experiment in a line: Antisense HE4 oligos in ovarian cancer (SKOV-3) xenografted animals. The class given is in vivo, nude mice. Conditions: 7 mg/kg bwt, IP, 5 days/week; for effect on tumor progression / tumor burden: within 28 days, versus scrambled, sense oligos and vehicle. As for the experimental part: Left: Effect of treatment of antisense HE4 oligos (“HE4 antisense 1” corresponds to SEQ ID NO:2 and “HE4 antisense 2” corresponds to SEQ ID NO:4; red and violet, respectively), sense HE4 oligos (green), vehicle, and scrambled sequences (7 mg/kg bwt, IP) 5 days/week on the tumor size in animals xenografted with ovarian cancer (SKOV-3) cells. Right: the weight of the animals treated with oligos progressed as the day progressed, and no toxicity was observed.
HE4 overexpression promoted ovarian cancer burden in animals (FIG. 24), and caused strong chemoresistance against cisplatin in animals (FIG. 26). Thus, a set of antisense oligos were designed to knockdown the expression levels of HE4 in animals xenografted with ovarian cancer (SKOV-3) cells. Treatment at 5 days/week with antisense HE4 phosphorothio oligos suppressed the tumor progression in animals compared to scrambled or sense HE4 oligos and vehicle treated control within 28 days of the treatment.

A further series concerns HE4. Description: HE4 levels in SKOV-3 cell lysates and media by sandwich ELISA. The class given is cell-based, Human. The note with it: for effect on HE4 levels in SKOV-3: cytotoxic agents, 24 hrs, serum free DMEM, versus untreated controls; for effect on HE4 levels in media or cell-lysate of SKOV-3 cells: growth factors and cytokines, 6 hours. As for the experimental part: (§1) Various agents were examined by RT-PCR or by a sandwich ELISA. […] HE4 levels in cell lysates and media were evaluated by a sandwich ELISA.
Cells were grown for 24 h in 100 mm cell culture dishes (Corning, New York, N.Y.), supernatant collected and lysates of washed and scraped cells prepared as described previously (Lange T S et al., 2007Chem Biol Drug Design, 70:302-10). Total protein of lysates was quantitated (BioRad protein estimation kit, Hercules, Calif.), and HE4 levels were determined using the HE4 EIA assay (Fujirebio Diagnostics, Malvern, Pa.), a solid-phase, non-competitive immunoassay using two mouse monoclonal antibodies, directed against two epitopes in the C-WFDC domain. Calibration curves were used to measure HE4 concentrations in both cell lysates and culture media allowing for the calculation of production and secretion of HE4 in pmol/g total cellular protein.
FIG. 15 is a bar chart showing that treatment with growth factors and cytokines affect the HE4 levels in ovarian cancer cells. SKOV-3 cells (1 million each) were seeded in 100 mm dishes and incubated overnight. The cells were treated with an array of factors (IL-6, Insulin, TNFa, EGF) and incubated for another 6 hours. The media was collected and cells were lysed using the cell lysis buffer. The HE4 content in the media or in the cell-lysate was examined by a HE4 sandwich ELISA kit.
A general note: ELISA stands for enzyme-linked immunosorbent assay.

Series [2] concerns HE4 overexpressing SKOV-3 clones HE4C1, -C3, -C7. The experiment in a line: MTS cell viability assay, HE4 overexpressing SKOV-3 clones. Conditions: 24 h; for viability at 20 µM: Homo sapiens, SK-OV-3, 24 h, 20 μM doxorubicin, untreated = 100%; for response of HE4 overexpressing SKOV-3 clones to drug treatment (viability, words): clones HE4C1, -C3, -C7, compared to parental SKOV-3. The class given is cell-based, Human. As for the experimental part:
An HE4 overexpressing vector for stable expression was engineered by inserting a coding sequence of human WAP four-disulfide core domain 2 (WFDC2) cDNA into a multiple cloning site of an eukaryotic expression vector, pCMV6-entry (Origene, Rockville, Md.). Transfection of the constructs in SKOV-3 cells was performed using Lipofectamine 2000 (Invitrogen, Carlsbad, Calif.) according to the manufacturer's instructions. Stably transfected cells were selected by resistance to G-418 (500 μg/ml) (Research Products International, Mount Prospect, Ill.), applied 48 h after transfection and continued during cell culture. G-418 resistant cells were resuspended (density 5 cells/ml) in complete medium/G-418 and seeded as 200 μl/well on a 96 well cell culture plate (Corning, New York, N.Y.). Cells growing from single colonies (cloned; stable transfection) were isolated.
(§2) Cell growth and viability of cell lines (complete medium, 24 h incubation) was determined by the CellTiter 96® AQueous One Solution Assay (Promega Corp, Madison, Wis.) following the manufacturer's recommendations with modifications (Lange T S et al., 2008 PLOS One, 3(5):e2303). Experiments are expressed as the mean of triplicate determinations (X±SD) of a representative experiment in OD (cell growth) or % of absorbance by drug-treated versus untreated cells [=100%] (cell viability). Cisplatin (CDDP), paclitaxel, doxorubicin and camptothecin (CPT) were purchased from (Sigma Aldrich, St. Louis, Mo.).
(§3) To analyze the potential biological relevance of elevated HE4 production for ovarian cancer cells the efficacy of commonly used anticancer drugs was examined in a viability assay (FIG. 5). SKOV-3 clones or parental cells were treated with cisplatin, paclitaxel, doxorubicin, or camptothecin for 24 h in various concentrations as indicated and the cytotoxicity evaluated.
(Tetrazolium dyes change colour on reduction, which living cells bring about.)

A further series has as its system SKOV-3 cells. Description: MTS cell viability assay, parental/wild-type SKOV-3 cells. The note with it: 24 h. The class given is cell-based, Human. How it is done: as §2, §3
The subject of another series is HE4 mRNA. Description: HE4 mRNA expression in SKOV-3 cells by RT-PCR. Conditions: stimulation in serum free DMEM (TNF 10 nM, Insulin 100 nM, EGF 10 nM, IL-6 10 nM). The class given is cell-based, Human. As for the experimental part:
as §1
Total RNA isolation from cells was carried out using TRIzol and Reverse transcription on 3 μg RNA using SuperScript III transcriptase according to the manufacturers protocol (Invitrogen, Carlsbad, Calif.) followed by 30 cycles of PCR using the following primer pairs: HE4 sense, 5′-AGG AGC AGA GAA GAC TGG-3′ (SEQ ID NO: 27); HE4 antisense, 5′-TTA TCA TTG GGC AGA GAG-3′ (SEQ ID NO: 28); GAPDH sense, 5′-AAT CCC ATC ACC ATC TTC C-3′ (SEQ ID NO: 29); GAPDH antisense, 5′-GTCCTTCCACGATACCAAAG-3′ (SEQ ID NO: 30). Cycle conditions: 94° C./1 min; 55° C./2 min, 72° C./2 min. PCR products were separated on 2% agarose gels containing 0.4 mg/ml of ethidium bromide.

Oligonucleotides are written 5' to 3', each unit as a sugar letter and its base; * is a phosphorothioate linkage, no mark a phosphodiester; rarer units and linkages stand in square brackets, end groups in braces. Plain capitals give the bases only. Starred links: 1 amine or outer side, 2 acyl side, 3 side chain; linkers in the order of their positions; H or OH if unused. Positions of bridges follow the written chain, without caps; N, C: chain ends. Non-standard residues stand in square brackets, D forms with d. Residues, ends and D or L forms follow the SMILES beside them. Chains are numbered I, II in the order given. Actinocin(9to1) = Cc1c2oc3c(C)ccc(C(=O)[*:1])c3nc-2c(C(=O)[*:2])c(N)c1=O; NMeV = CN[C@H](C(=O)O)C(C)C; d = 2'-deoxy (DNA); Sar = CNCC(=O)O

As for “5′ A*C*A*C*C*T*T*C*C*C*A*C*A*G*C*C*A*T*T 3′ (DNA ACACCTTCCCACAGCCATT; DNA, all phosphorothioate, methylation of C not given here) [SEQ ID NO:5]”, the “effect on tumor progression / tumor burden” value in series [1] is on record as “showed tumor inhibitory activity”.
As for “5′ A*C*A*C*C*T*T*C*C*C*A*C*A*G*C*C*A*T*T*G 3′ [SEQ ID NO:4]”, in series [1], the “toxicity in animals (body weight)” value is given as “did not cause any toxicity”. The “effect on tumor progression / tumor burden” value in series [1] is “strong reduction in tumor burden”; in series [1] (listed as HE4 antisense 2), “suppressed the progression of ovarian tumor growth”.
With “5′ G*A*C*A*C*C*T*T*C*C*C*A*C*A*G*C*C*A*T 3′ (DNA GACACCTTCCCACAGCCAT; DNA, all phosphorothioate, methylation of C not given here) [SEQ ID NO:3]”, in series [1], the “effect on tumor progression / tumor burden” value was “showed tumor inhibitory activity”.
For the molecule “5′ G*A*C*A*C*C*T*T*C*C*C*A*C*A*G*C*C*A*T*T 3′ (DNA dG*dA*dC*dA*dC*dC*dT*dT*dC*dC*dC*dA*dC*dA*dG*dC*dC*dA*dT*dT; antisense) [SEQ ID NO:1]”, the “effect on tumor progression / tumor burden” value in series [1] is “showed tumor inhibitory activity”.
On to “5′ G*A*C*A*C*C*T*T*C*C*C*A*C*A*G*C*C*A*T*T*G 3′ [SEQ ID NO:2]”, for which the “toxicity in animals (body weight)” value in series [1] was “did not cause any toxicity”. The “effect on tumor progression / tumor burden” value in series [1] (listed as HE4 antisense 1) is recorded as “suppressed the progression of ovarian tumor growth”.
Consider `Cc1c2oc3c(C)ccc(C(=O)N[C@@H]4C(=O)N[C@H](C(C)C)C(=O)N5CCC[C@H]5C(=O)N(C)CC(=O)N(C)[C@@H](C(C)C)C(=O)O[C@@H]4C)c3nc-2c(C(=O)N[C@@H]2C(=O)N[C@H](C(C)C)C(=O)N3CCC[C@H]3C(=O)N(C)CC(=O)N(C)[C@@H](C(C)C)C(=O)O[C@@H]2C)c(N)c1=O` [Actinomycin-D] (I: T[dV]P[Sar][NMeV] / II: T[dV]P[Sar][NMeV]; ester I:1-I:C, II:1-II:C; linker I:N-II:N via Actinocin(9to1)), for which the “effect on HE4 levels in SKOV-3” value in the series with HE4 is given as “suppressed HE4 levels”.
Consider `C=C1/C(=C\C=C2/CCC[C@]3(C)[C@@H]([C@H](C)CCCC(C)(C)O)CC[C@@H]23)C[C@@H](O)C[C@@H]1O` [Calcitriol], for which the “effect on HE4 levels in SKOV-3” value in the series with HE4 is listed as “upregulated HE4 expression”.
In the case of `COc1cc2ncnc(Nc3ccc(F)c(Cl)c3)c2cc1OCCCN1CCOCC1` [Iressa], in the series with HE4, the “effect on HE4 levels in SKOV-3” value is reported as “suppressed HE4 levels”.
With `CC[C@@]1(O)C(=O)OCc2c1cc1n(c2=O)Cc2cc3ccccc3nc2-1` [camptothecin], the “maximum difference in viability between wild-type cells and HE4C1, -3, -7” value in series [2] (camptothecin, at 1.2 μM) is no more than 21%.
Usually viability stands for a read-out of living cells in per cent, often relative to untreated cells. Take `COc1cccc2c1C(=O)c1c(O)c3c(c(O)c1C2=O)C[C@@](O)(C(=O)CO)C[C@@H]3O[C@H]1C[C@H](N)[C@H](O)[C@H](C)O1` [doxorubicin]: the viability at 20 µM in the series with SKOV-3 cells (Homo sapiens, SK-OV-3, wild-type SKOV-3, 20 μM doxorubicin, untreated = 100%) turned out to be 58%; in series [2] (HE4C1), 70%; in series [2] (HE4C3) it was 84%; in series [2] (HE4C7), 91%.
`CC(=O)O[C@H]1C(=O)[C@@]2(C)[C@H]([C@H](OC(=O)c3ccccc3)[C@]3(O)C[C@H](OC(=O)[C@H](O)[C@@H](NC(=O)c4ccccc4)c4ccccc4)C(C)=C1C3(C)C)[C@]1(OC(C)=O)CO[C@@H]1C[C@@H]2O` [paclitaxel]: the “effect on viability of wild-type SKOV-3 cells” value with SKOV-3 cells (paclitaxel 6.25, 12.5 or 25 nM, cisplatin 40 or 80 μM) was “reduced the viability of wild-type SKOV-3 cells drastically”. For the same molecule, in the series with HE4, the “effect on HE4 levels in SKOV-3” value was “suppressed HE4 levels”. In addition, the entries for the “response of HE4 overexpressing SKOV-3 clones to drug treatment (viability, words)” value in series [2] and in series [2] (listed as Paclitaxel) were “did not display a significantly altered viability” and “significantly reduced response”, respectively.
For the molecule “EGF: epidermal growth factor (NSDSECPLSHDGYCLHDGVCMYIEALDKYACNCVVGYIGERCQYRDLKWWELR; UniProt P01133 971-1023, looked up)”, the “effect on HE4 levels in media or cell-lysate of SKOV-3 cells” value (“effect on HE4 levels … of SKOV-3 cells” for short) in the series with HE4 is on record as “elevate HE4 levels”. Besides, the “effect on mRNA expression of HE4 in SKOV-3 cells” value (“effect on mRNA expression of HE4” below) with HE4 mRNA was “did not affect mRNA expression of HE4”.
Consider IL-6: cytokine, for which the “effect on HE4 levels … of SKOV-3 cells” value with HE4 was “suppresses the HE4 levels”. For the same molecule, the “effect on mRNA expression of HE4” value in the series with HE4 mRNA was “did not affect mRNA expression of HE4”.
Regarding Insulin: growth factor, the “effect on HE4 levels … of SKOV-3 cells” value with HE4 is given as “elevate HE4 levels”. The “effect on mRNA expression of HE4” value in the series on HE4 mRNA is “did not affect mRNA expression of HE4”.
TNF-a: the “effect on HE4 levels … of SKOV-3 cells” value in the series on HE4 is “does not alter HE4 levels”. Moreover, in the series on HE4 mRNA, the “effect on mRNA expression of HE4” value is “did not affect mRNA expression of HE4”.
As to Tunicamycin, the “effect on HE4 levels in SKOV-3” value in the series with HE4 is “suppressed HE4 levels”.
